Results as given in patent US11540518B2, “Fungicidal oxadiazoles” (FMC Corporation, priority 2017, dated 2023).

Columns and labels:
Format in all cases: in vivo
[1] = system: Zymoseptoria tritici; test: Test B: wheat leaf blotch control on wheat seedlings; settings: sprayed to run-off on wheat seedlings, inoculated the following day, 100 = 100% disease control, 0 = no control
Excerpt: (§1) General protocol for preparing test suspensions for Tests A-C: the test compounds were first dissolved in acetone in an amount equal to 3% of the final volume and then suspended at the desired concentration (in ppm) in acetone and purified water (50/50 mix by volume) containing 250 ppm of the surfactant PEG400 (polyhydric alcohol esters). The resulting test suspensions were then used in Tests A-C. The test solution was sprayed to the point of run-off on wheat seedlings. The following day the seedlings were inoculated with a spore suspension of Zymoseptoria tritici (the causal agent of wheat leaf blotch) and incubated in a saturated atmosphere at 24° C. for 48 h, and then moved to a growth chamber at 20° C. for 17 days, after which time disease ratings were made. Results for Tests A-C are given in Table A. In the Table, a rating of 100 indicates 100% disease control and a rating of 0 indicates no disease control (relative to the controls). A dash (-) indicates the compound was not tested.

[2] = system: Phakopsora pachyrhizi; test: Test A: Asian soybean rust control on soybean seedlings; settings: sprayed to run-off on soybean seedlings, inoculated the following day, 100 = 100% disease control, 0 = no control
Excerpt: General protocol for preparing test suspensions for Tests A-C: the test compounds were first dissolved in acetone in an amount equal to 3% of the final volume and then suspended at the desired concentration (in ppm) in acetone and purified water (50/50 mix by volume) containing 250 ppm of the surfactant PEG400 (polyhydric alcohol esters). The resulting test suspensions were then used in Tests A-C.
The test solution was sprayed to the point of run-off on soybean seedlings. The following day the seedlings were inoculated with a spore suspension of Phakopsora pachyrhizi (the causal agent of Asian soybean rust) and incubated in a saturated atmosphere at 22° C. for 24 h, and then moved to a growth chamber at 22° C. for 8 days, after which time visual disease ratings were made.
Results for Tests A-C are given in Table A. In the Table, a rating of 100 indicates 100% disease control and a rating of 0 indicates no disease control (relative to the controls). A dash (-) indicates the compound was not tested.

[3] = system: Puccinia recondita f. sp. tritici; test: Test C: wheat leaf rust control on wheat seedlings; settings: sprayed to run-off on wheat seedlings, inoculated the following day, 100 = 100% disease control, 0 = no control
Excerpt: as §1, with “Puccinia recondita f. sp.” for “Zymoseptoria”, “rust)” for “blotch)”, “20°” for “24°”, “24” for “48”, “6” for “17”

[4] = 250 ppm (incl. values marked * = tested at 250 ppm)

In the case of `CCNC(=O)OCC(OC)c1ccc(-c2noc(C(F)(F)F)n2)cc1` (racemic) [Compound 5], the “Test B disease control rating” value ([1]; 260 ppm) is reported as 81%, the “Test A disease control rating” value ([2]; 260 ppm) is reported as 100% and the “Test C disease control rating” value ([3]; 260 ppm) is reported as 100%.

For `CCC(C)NC(=O)OCc1ccc(-c2noc(C(F)(F)F)n2)cc1` (racemic) [Compound 14], the “Test B disease control rating” value [1, 4] was 84%, the “Test A disease control rating” value ([2]; 250 ppm) was 100% and the “Test C disease control rating” value ([3]; 250 ppm) was 100%.

In the case of `O=C(Nc1ccccc1)OCc1ccc(-c2noc(C(F)(F)F)n2)cc1` [Compound 1], the “Test B disease control rating” value ([1]; 270 ppm) is reported as 79%, the “Test A disease control rating” value ([2]; 270 ppm) is reported as 100% and the “Test C disease control rating” value ([3]; 270 ppm) is reported as 100%.

For `CCNC(=O)OCc1ccc(-c2noc(C(F)(F)F)n2)cc1` [Compound 2], the “Test B disease control rating” value ([1]; 260 ppm) was 99%, the “Test A disease control rating” value ([2]; 260 ppm) was 100% and the “Test C disease control rating” value ([3]; 260 ppm) was 100%.

For `CC(C)NC(=O)OCc1ccc(-c2noc(C(F)(F)F)n2)cc1` [Compound 3], the “Test B disease control rating” value [1, 4] was 73%, the “Test A disease control rating” value ([2]; 250 ppm) was 100% and the “Test C disease control rating” value ([3]; 250 ppm) was 100%.

In the case of `CCOC(=O)CNC(=O)OCc1ccc(-c2noc(C(F)(F)F)n2)cc1` [Compound 4], the “Test B disease control rating” value ([1]; 260 ppm) is reported as 46%, the “Test A disease control rating” value ([2]; 260 ppm) is reported as 100% and the “Test C disease control rating” value ([3]; 260 ppm) is reported as 100%.

With `CN(C)C(=O)OCc1ccc(-c2noc(C(F)(F)F)n2)cc1` [Compound 6] the “Test B disease control rating” value ([1]; 260 ppm) was 76%, the “Test A disease control rating” value ([2]; 260 ppm) was 100% and the “Test C disease control rating” value ([3]; 260 ppm) was 100%.

With `O=C(NCCCl)OCc1ccc(-c2noc(C(F)(F)F)n2)cc1` [Compound 7] the “Test B disease control rating” value ([1]; 260 ppm) was 98%, the “Test A disease control rating” value ([2]; 260 ppm) was 100% and the “Test C disease control rating” value ([3]; 260 ppm) was 100%.

`O=C(OCc1ccc(-c2noc(C(F)(F)F)n2)cc1)n1ccnc1` [Compound 8, 2-[4-[5-(trifluoromethyl)-1,2,4-oxadiazol-3-yl]phenyl]methyl-1H-imidazole-1-carboxylate] was tested, and the “Test B disease control rating” value ([1]; 255 ppm) was 13%, the “Test A disease control rating” value ([2]; 255 ppm) was 100% and the “Test C disease control rating” value ([3]; 255 ppm) was 100%.

For `CNC(=O)OCc1ccc(-c2noc(C(F)(F)F)n2)cc1` [Compound 9], the “Test B disease control rating” value ([1]; 260 ppm) was 94%, the “Test A disease control rating” value ([2]; 260 ppm) was 100% and the “Test C disease control rating” value ([3]; 260 ppm) was 100%.

In the case of `CCCNC(=O)OCc1ccc(-c2noc(C(F)(F)F)n2)cc1` [Compound 10], the “Test B disease control rating” value [1, 4] is reported as 97%, the “Test A disease control rating” value ([2]; 250 ppm) is reported as 100% and the “Test C disease control rating” value ([3]; 250 ppm) is reported as 100%.

In the case of `COCCNC(=O)OCc1ccc(-c2noc(C(F)(F)F)n2)cc1` [Compound 11], the “Test B disease control rating” value [1, 4] is reported as 96%, the “Test A disease control rating” value ([2]; 250 ppm) is reported as 100% and the “Test C disease control rating” value ([3]; 250 ppm) is reported as 100%.

In the case of `C#CCNC(=O)OCc1ccc(-c2noc(C(F)(F)F)n2)cc1` [Compound 12], the “Test B disease control rating” value ([1]; 265 ppm) is reported as 100%, the “Test A disease control rating” value ([2]; 265 ppm) is reported as 100% and the “Test C disease control rating” value ([3]; 265 ppm) is reported as 100%.

For `O=C(NCc1ccccc1)OCc1ccc(-c2noc(C(F)(F)F)n2)cc1` [Compound 13], the “Test B disease control rating” value ([1]; 260 ppm) was 36%, the “Test A disease control rating” value ([2]; 260 ppm) was 100% and the “Test C disease control rating” value ([3]; 260 ppm) was 100%.

For `CCCCNC(=O)OCc1ccc(-c2noc(C(F)(F)F)n2)cc1` [Compound 15], the “Test B disease control rating” value ([1]; 265 ppm) was 92%, the “Test A disease control rating” value ([2]; 265 ppm) was 100% and the “Test C disease control rating” value ([3]; 265 ppm) was 100%.

`CC(C)(C)NC(=O)OCc1ccc(-c2noc(C(F)(F)F)n2)cc1` [Compound 16] was tested, and the “Test B disease control rating” value ([1]; 255 ppm) was 19%, the “Test A disease control rating” value ([2]; 255 ppm) was 100% and the “Test C disease control rating” value ([3]; 255 ppm) was 100%.

For `NC(=O)OCc1ccc(-c2noc(C(F)(F)F)n2)cc1` [Compound 17, [4-[5-(trifluoromethyl)-1,2,4-oxadiazol-3-yl]phenyl]methyl carbamate], the “Test B disease control rating” value ([1]; 260 ppm) was 92%, the pest or weed control at 260 ppm ([2]; Phakopsora pachyrhizi, 216 h, 260 ppm, read-out: Test A disease control rating) was 100% and the pest or weed control at 260 ppm ([3]; Puccinia recondita, 168 h, 260 ppm, read-out: Test C disease control rating) was 100%.

For `O=C(OCc1ccc(-c2noc(C(F)(F)F)n2)o1)n1ccnc1` [Compound 82], the pest or weed control at 50 ppm ([2]; Phakopsora pachyrhizi, 216 h, 50 ppm, read-out: Test A disease control rating) was 89% and the pest or weed control at 50 ppm ([3]; Puccinia recondita, 168 h, 50 ppm, read-out: Test C disease control rating) was 0%.

With `COc1ccc(C(OC(=O)n2ccnc2)c2ccc(-c3noc(C(F)(F)F)n3)cc2)cc1` (stereo not shown) [Compound 83] the “Test A disease control rating” value ([2]; 50 ppm) was 100% and the “Test C disease control rating” value ([3]; 50 ppm) was 100%.

`CC(OC(N)=O)c1ccc(-c2noc(C(F)(F)F)n2)cc1` (stereo not shown) [Compound 84] was tested, and the “Test A disease control rating” value ([2]; 10 ppm) was 100% and the “Test C disease control rating” value ([3]; 10 ppm) was 100%.

In the case of `CC(C)(C)OC(=O)NN=Cc1ccc(-c2noc(C(F)(F)F)n2)cc1` [Compound 106], the “Test A disease control rating” value ([2]; 10 ppm) is reported as 97% and the “Test C disease control rating” value ([3]; 10 ppm) is reported as 68%.

With `CCOC(=O)NN=Cc1ccc(-c2noc(C(F)(F)F)n2)cc1` [Compound 107] the “Test A disease control rating” value ([2]; 10 ppm) was 100% and the “Test C disease control rating” value ([3]; 10 ppm) was 99%.

`COC(=O)NN=C(C)c1ccc(-c2noc(C(F)(F)F)n2)cc1` [Compound 108] was tested, and the “Test A disease control rating” value ([2]; 10 ppm) was 92% and the “Test C disease control rating” value ([3]; 10 ppm) was 89%.

In the case of `CN(N=Cc1ccc(-c2noc(C(F)(F)F)n2)cc1)C(=O)OC(C)(C)C` [Compound 109], the “Test A disease control rating” value ([2]; 50 ppm) is reported as 100% and the “Test C disease control rating” value ([3]; 50 ppm) is reported as 95%.

For `CCNC(=O)OC(c1ccccc1)c1ccc(-c2noc(C(F)(F)F)n2)cc1` (stereo not shown) [Compound 110], the “Test A disease control rating” value ([2]; 250 ppm) was 100% and the “Test C disease control rating” value ([3]; 250 ppm) was 100%.

For `O=C(OC(c1ccccc1)c1ccc(-c2noc(C(F)(F)F)n2)cc1)n1ccnc1` (stereo not shown) [Compound 111], the “Test A disease control rating” value ([2]; 250 ppm) was 100% and the “Test C disease control rating” value ([3]; 250 ppm) was 100%.

With `NC(=O)OC(c1ccccc1)c1ccc(-c2noc(C(F)(F)F)n2)cc1` (stereo not shown) [Compound 117] the “Test A disease control rating” value ([2]; 250 ppm) was 100% and the “Test C disease control rating” value ([3]; 250 ppm) was 100%.

`C#CCNC(=O)OC(c1ccccc1)c1ccc(-c2noc(C(F)(F)F)n2)cc1` (stereo not shown) [Compound 118] was tested, and the “Test A disease control rating” value ([2]; 250 ppm) was 100% and the “Test C disease control rating” value ([3]; 250 ppm) was 100%.

`COC(=O)c1ccc(CNC(=O)OC(c2ccccc2)c2ccc(-c3noc(C(F)(F)F)n3)cc2)cc1` (stereo not shown) [Compound 119] was tested, and the “Test A disease control rating” value ([2]; 250 ppm) was 100% and the “Test C disease control rating” value ([3]; 250 ppm) was 74%.

For `C#CCCNC(=O)OC(c1ccccc1)c1ccc(-c2noc(C(F)(F)F)n2)cc1` (stereo not shown) [Compound 120], the “Test A disease control rating” value ([2]; 250 ppm) was 100% and the “Test C disease control rating” value ([3]; 250 ppm) was 100%.

In the case of `CN(C)C(=O)OC(c1ccccc1)c1ccc(-c2noc(C(F)(F)F)n2)cc1` (stereo not shown) [Compound 121], the “Test A disease control rating” value ([2]; 250 ppm) is reported as 100% and the “Test C disease control rating” value ([3]; 250 ppm) is reported as 99%.

With `COCCNC(=O)OC(c1ccccc1)c1ccc(-c2noc(C(F)(F)F)n2)cc1` (stereo not shown) [Compound 122] the “Test A disease control rating” value ([2]; 10 ppm) was 100% and the “Test C disease control rating” value ([3]; 10 ppm) was 89%.

In the case of `CONC(=O)OCc1ccc(-c2noc(C(F)(F)F)n2)cc1` [Compound 136], the “Test A disease control rating” value ([2]; 10 ppm) is reported as 79% and the “Test C disease control rating” value ([3]; 10 ppm) is reported as 0%.

`Cc1ccccc1C(OC(=O)n1ccnc1)c1ccc(-c2noc(C(F)(F)F)n2)cc1` (stereo not shown) [Compound 142] was tested, and the “Test A disease control rating” value ([2]; 10 ppm) was 98% and the “Test C disease control rating” value ([3]; 10 ppm) was 0%.
